Tests used:
human AT1R = human AT1R (Homo sapiens (Human), UniProt P30556); assay: Counterscreen radioligand binding assay, displacement of 125I-[Sar1, Ile8]-Angiotensin II, hAT1R WT; details: for inhibition at 1 µM / inhibition at 10 µM: 125I-[Sar1, Ile8]-Ang II, semi-quantitative score; for inhibition at 1 µM: compound at 1 μM, read-out: % Displaced radioligand at 1 μM; for inhibition at 10 µM: compound at 10 μM, read-out: % Displaced radioligand at 10 μM; for IC50: HEK-293 cell membranes, read-out: Binding affinity On hAT1R IC50
Sequence of human AT1R (P30556 whole entry): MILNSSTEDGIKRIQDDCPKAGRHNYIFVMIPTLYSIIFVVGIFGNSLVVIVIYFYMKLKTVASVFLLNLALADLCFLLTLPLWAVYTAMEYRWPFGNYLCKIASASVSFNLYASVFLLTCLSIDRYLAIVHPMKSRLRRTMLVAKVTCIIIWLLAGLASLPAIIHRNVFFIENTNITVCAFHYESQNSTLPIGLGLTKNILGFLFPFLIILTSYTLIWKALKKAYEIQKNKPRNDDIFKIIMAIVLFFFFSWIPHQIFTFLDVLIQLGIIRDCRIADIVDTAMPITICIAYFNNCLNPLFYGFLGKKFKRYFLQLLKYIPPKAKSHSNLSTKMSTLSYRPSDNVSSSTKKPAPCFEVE
Summary of the method: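 Membranes from HEK-293 cells expressing human AT1R were incubated for one hour at 25° C, pH 7.4, with 0.05 nM radiolabelled [Sar1, Ile8]-Ang II and test ligand. Bound radioactivity was collected on PEI-soaked filters, with 10 μM unlabelled [Sar1]-Ang II defining non-specific binding. Results are percent displacement at 1 μM and […], or IC50 from eight-point duplicate curves.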

human AT2R fused to Cb23 = human AT2R fused to Cb23 (Homo sapiens, UniProt P50052); assay: Radioligand binding assay, displacement of 125I-[Sar1, Ile8]-Angiotensin II, hAT2R Cb23; details: displacement of 125I-[Sar1, Ile8]-Angiotensin II, human AT2R fused to Cb23, HEK-293 cell membrane preparations; read-out: Binding affinity on hAT2R_Cb23 IC50
Sequence of human AT2R fused to Cb23 (P50052 whole entry, looked up, the tested form may be a part): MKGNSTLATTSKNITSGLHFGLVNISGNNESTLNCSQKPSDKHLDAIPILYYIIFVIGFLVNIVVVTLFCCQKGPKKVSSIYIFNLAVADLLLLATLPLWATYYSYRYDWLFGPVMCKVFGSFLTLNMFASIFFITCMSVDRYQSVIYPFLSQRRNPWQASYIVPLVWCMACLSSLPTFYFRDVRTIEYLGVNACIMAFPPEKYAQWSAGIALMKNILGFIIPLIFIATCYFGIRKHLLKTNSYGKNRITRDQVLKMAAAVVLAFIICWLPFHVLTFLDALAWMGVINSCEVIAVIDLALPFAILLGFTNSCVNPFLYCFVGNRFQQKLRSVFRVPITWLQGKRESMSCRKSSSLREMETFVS
Summary of the method: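 Membranes from HEK-293 cells expressing human AT2R fused to Cb23 were incubated with 0.05 nM 125I-[Sar1, Ile8]-Angiotensin II in 100 μL buffer (50 mM Tris, 5 mM MgCl2, 1 mM EDTA, 0.1% BSA, pH 7.4) for one hour at 25° C. Ligands were tested as eight-point dose-response curves in duplicate, with C21 and Angiotensin II as references.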

Row | inhibition at 1 µM (human AT1R) | inhibition at 10 µM (human AT1R) | IC50 (human AT2R fused to Cb23) | IC50 (human AT1R) | Structure (SMILES)
1 | < 30% | < 30% | 8.5 µM |  | COC1CC(Nc2ccc(-c3nn[nH]n3)c(N3CCN(Cc4nc5ccccc5s4)CC3)c2)C1 (centres unmarked) [Compound A-68, 3-[4-(1,3-benzo-thiazol-2-ylmethyl)-piperazin-1-yl]-N-(3-methoxycyclo-butyl)-4-(2H-tetrazol-5-yl)aniline]
2 | < 30% | < 30% | 10.6 µM |  | CC(C)Cc1ccc(-c2nn[nH]n2)c(N2CCN(Cc3nc(=O)c4cnn(C)c4[nH]3)CC2)c1 [Compound A-69, 6-[[4-[5-isobutyl-2-(2H-tetrazol-5-yl)-phenyl]piperazin-1-yl]methyl]-1-methyl-7H-pyr-azolo[3,4-d]pyrimi-din-4-one]
3 | < 30% | < 30% | 1.8 µM | 61.2 µM | Cc1ccc2nc(CN3CCN(c4cc(CC(C)C)ccc4-c4nn[nH]n4)CC3)cc(=O)n2c1 [Compound A-70, 2-[[4-[5-isobutyl-2-(2H-tetrazol-5-yl)-phenyl]piperazin-1-yl]methyl]-7-methyl-pyrido[1,2-a]pyrimidin-4-one]
4 | < 30% | < 30% | 8.39 µM |  | Cc1ccn2c(=O)cc(CN3CCN(c4cc(CC(C)C)ccc4-c4nn[nH]n4)CC3)nc2c1 [Compound A-72, 2-[[4-[5-isobutyl-2-(2H-tetrazol-5-yl)phenyl]piperazin-1-yl]methyl]-8-methyl-pyrido[1,2-a]pyrimidin-4-one]
5 | < 30% | < 30% | 4.3 µM |  | Cc1cccc2nc(CN3CCN(c4cc(CC(C)C)ccc4-c4nn[nH]n4)CC3)cc(=O)n12 [Compound A-73, 2-[[4-[5-isobutyl-2-(2H-tetrazol-5-yl)-phenyl]piperazin-1-yl]methyl]-6-methyl-pyrido[1,2-a]pyrimidin-4-one-]
6 | < 30% | < 30% | 5.92 µM |  | Cc1csc2nc(CN3CCN(c4cc(CC(C)C)ccc4-c4nn[nH]n4)CC3)cc(=O)n12 [Compound A-75, 7-[[4-[5-isobutyl-2-(2H-tetrazol-5-yl)phenyl]piperazin-1-yl]methyl]-3-methyl-thiazolo[3,2-a]pyrimidin-5-one]
7 | < 30% | < 30% | 5.57 µM |  | CC(C)Cc1ccc(-c2nn[nH]n2)c(N2CCN(Cc3cc(=O)n4ccccc4n3)CC2)c1 [Compound A-76, 2-[[4-[5-isobutyl-2-(2H-tetrazol-5-yl)-phenyl]piperazin-1-yl]methyl]pyrido-[1,2-a]pyrimidin-4-one]
8 | < 30% | 30 to 50% | 2.91 µM | 13.5 µM | CC(C)Cc1ccc(-c2nn[nH]n2)c(N2CCN(Cc3cc4ccccc4n(C)c3=O)CC2)c1 [Compound A-77, 3-[[4-[5-isobutyl-2-(2H-tetrazol-5-yl)-phenyl]piperazin-1-yl]methyl]-1-methyl-quinolin-2-one]
9 | < 30% | 30 to 50% | 1.5 µM | 12.2 µM | CC(C)Cc1ccc(-c2nn[nH]n2)c(N2CCN(Cc3nc4ccccc4c(=O)n3C)CC2)c1 [Compound A-78, 2-[[4-[5-isobutyl-2-(2H-tetrazol-5-yl)-phenyl]piperazin-1-yl]methyl]-3-methyl-quinazolin-4-one]
10 | < 30% | < 30% | 4.72 µM |  | CC(C)Cc1ccc(-c2nn[nH]n2)c(N2CCN(Cc3nc4ccccc4n(C)c3=O)CC2)c1 [Compound A-79, 3-[[4-[5-isobutyl-2-(2H-tetrazol-5-yl)-phenyl]piperazin-1-yl]methyl]-1-methyl-quinoxalin-2-one]
11 | < 30% | < 30% | 0.222 µM |  | CC(C)Cc1ccc(-c2nn[nH]n2)c(N2CCN(Cc3cnc4ccccn34)CC2)c1 [Compound A-80, 3-[[4-[5-isobutyl-2-(2H-tetrazol-5-yl)-phenyl]piperazin-1-yl]methyl]imid-azo[1,2-a]pyridine]
12 | < 30% | < 30% | 1.84 µM |  | CC(C)Cc1ccc(-c2nn[nH]n2)c(N2CCN(Cc3nn(C)c4ccccc34)CC2)c1 [Compound A-81, 3-[[4-[5-isobutyl-2-(2H-tetrazol-5-yl)-phenyl]piperazin-1-yl]methyl]-1-methyl-indazole]
13 | < 30% | < 30% | 2.03 µM | 45 µM | CC(C)Cc1ccc(-c2nn[nH]n2)c(N2CCN(Cc3ccc(C(F)(F)F)cn3)CC2)c1 [Compound A-85, 1-[5-isobutyl-2-(2H-tetrazol-5-yl)-phenyl]-4-[[5-(trifluoromethyl)-2-pyridyl]methyl]-piperazine]
14 | < 30% | < 30% | 24.9 µM |  | Cc1nc(CN2CCN(c3cc(CC(C)C)ccc3-c3nn[nH]n3)CC2)no1 [Compound A-86, 3-[[4-[5-isobutyl-2-(2H-tetrazol-5-yl)phenyl]piperazin-1-yl]methyl]-5-methyl-1,2,4-oxadiazole]
15 | < 30% | < 30% | 3.81 µM |  | Cc1nc(CN2CCN(c3cc(CC(C)C)ccc3-c3nn[nH]n3)CC2)cs1 [Compound A-87]
16 | < 30% | < 30% | 9.78 µM |  | Cc1cc(CN2CCN(c3cc(CC(C)C)ccc3-c3nn[nH]n3)CC2)on1 [Compound A-89, 5-[[4-[5-isobutyl-2-(2H-tetrazol-5-yl)-phenyl]piperazin-1-yl]methyl]-3-methyl-isoxazole]
17 | < 30% | < 30% | 6.98 µM |  | CC(C)Cc1ccc(-c2nn[nH]n2)c(N2CCN(Cc3cnccn3)CC2)c1 [Compound A-93, 2-[[4-[5-isobutyl-2-(2H-tetrazol-5-yl)-phenyl]piperazin-1-yl]methyl]pyr-azine]
18 | < 30% | 30 to 50% | 4.77 µM | 14.2 µM | CC(C)Cc1ccc(-c2nn[nH]n2)c(N2CCN(Cc3nncn3C)CC2)c1 [Compound A-94, 1-[5-isobutyl-2-(2H-tetrazol-5-yl)phenyl]-4-[(4-methyl-1,2,4-triazol-3-yl)methyl]piperazine]
19 | < 30% | < 30% | 0.757 µM |  | CC(C)Cc1ccc(-c2nn[nH]n2)c(N2CCN(Cc3nccs3)CC2)c1 [Compound A-97, 2-[[4-[5-isobutyl-2-(2H-tetrazol-5-yl)phenyl]piperazin-1-yl]methyl]thiazole]
20 | < 30% | < 30% | 5.69 µM |  | CC(C)Cc1ccc(-c2nn[nH]n2)c(N2CCN(Cc3ncco3)CC2)c1 [Compound A-98, 2-[[4-[5-isobutyl-2-(2H-tetrazol-5-yl)-phenyl]piperazin-1-yl]methyl]oxazole]
21 | < 30% | < 30% | 4.48 µM |  | Cc1noc(C)c1CN1CCN(c2cc(CC(C)C)ccc2-c2nn[nH]n2)CC1 [Compound A-101]
22 | < 30% | < 30% | 7.07 µM |  | CC(C)Cc1ccc(-c2nn[nH]n2)c(N2CCN(Cc3cc(C4CC4)on3)CC2)c1 [Compound A-102, 5-cyclopropyl-3-[[4-[5-isobutyl-2-(2H-tetrazol-5-yl)phenyl]piperazin-1-yl]methyl]isoxazole]
23 | < 30% | < 30% | 6 µM |  | Cc1cc(CN2CCN(c3cc(CC(C)C)ccc3-c3nn[nH]n3)CC2)n(C)n1 [Compound A-104, 1-[(2,5-dimethyl-pyrazol-3-yl)meth-yl]-4-[5-isobutyl-2-(2H-tetrazol-5-yl)-phenyl]piperazine]
24 | < 30% | < 30% | 2 µM |  | CC(C)Cc1ccc(-c2nn[nH]n2)c(N2CCN(Cc3cncn3C)CC2)c1 [Compound A-105, 1-[5-isobutyl-2-(2H-tetrazol-5-yl)phenyl]-4-[(3-methylimidazol-4-yl)methyl]piperazine]
25 | < 30% | < 30% | 0.0355 µM |  | Cc1cnc(CN2CCN(c3cc(CC(C)C)ccc3-c3nn[nH]n3)CC2)s1 [Compound A-106, 2-[[4-[5-isobutyl-2-(2H-tetrazol-5-yl)phenyl]piperazin-1-yl]methyl]-5-methyl-thiazole]
26 | < 30% | < 30% | 5.43 µM |  | Cc1scnc1CN1CCN(c2cc(CC(C)C)ccc2-c2nn[nH]n2)CC1 [Compound A-111, 4-[[4-[5-isobutyl-2-(2H-tetrazol-5-yl)phenyl]piperazin-1-yl]methyl]-5-methyl-thiazole]
27 | < 30% | < 30% | 0.697 µM |  | Cc1cnnc(CN2CCN(c3cc(CC(C)C)ccc3-c3nn[nH]n3)CC2)c1 [Compound A-112, 3-[[4-[5-isobutyl-2-(2H-tetrazol-5-yl)phenyl]piperazin-1-yl]methyl]-5-methyl-pyridazine]
28 | < 30% | < 30% | 7.07 µM |  | Cc1ccc(CN2CCN(c3cc(CC(C)C)ccc3-c3nn[nH]n3)CC2)nn1 [Compound A-113]
